Source: PubChem BioAssay AID292 (DTP/NCI, 2004)
Toxic doses and inconclusive results are not listed.

Tested on: B6C3F1 mice, ip Sarcoma M5076, median survival T/C
Experiment: NCI In Vivo Anticancer Drug Screen. Data for tumor model Sarcoma M5076 (intraperitoneal) in B6C3F1 mice
Details: endpoint: median survival time, schedule: Q04DX004 (ip), higher = longer survival
In short: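 Mice carrying the transplanted tumour received compound treatment. Survival was recorded, and each value is the treated-group measurement divided by that of the vehicle-dosed control group.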

[1] = dose: 50.0 mg/kg/injection, vehicle: saline with Tween-80
[2] = dose: 100.0 mg/kg/injection, vehicle: saline with Tween-80
[3] = dose: 200.0 mg/kg/injection, vehicle: saline with Tween-80
[4] = dose: 400.0 mg/kg/injection, vehicle: saline with Tween-80
[5] = dose: 25.0 mg/kg/injection, vehicle: saline with Tween-80
[6] = dose: 50.0 mg/kg/injection, vehicle: saline
[7] = dose: 100.0 mg/kg/injection, vehicle: saline
[8] = dose: 200.0 mg/kg/injection, vehicle: saline

Nc1cc2c(cc1Br)-c1c(C(=O)O)cccc1C2O (stereo unspecified)
T/C [1]: 96 % of control | T/C (dose: 50.0 mg/kg/injection, vehicle: sodium bicarbonate): 94 % of control | T/C [2]: 97 % of control | T/C (dose: 100.0 mg/kg/injection, vehicle: sodium bicarbonate): 100 % of control | T/C [3]: 101 % of control | T/C (dose: 200.0 mg/kg/injection, vehicle: sodium bicarbonate): 109 % of control | T/C [4]: 109 % of control | T/C (dose: 400.0 mg/kg/injection, vehicle: sodium bicarbonate): 107 % of control | T/C (dose: 683.0 mg/kg/injection, vehicle: saline with Tween-80): 103 % of control | T/C (dose: 800.0 mg/kg/injection, vehicle: sodium bicarbonate): 118 % of control

O=c1[nH]cnc2c1ncn2C1CC2[O][Sn]([c]3ccccc3)([c]3ccccc3)[O]CC2O1 (stereo unspecified)
T/C (dose: 37.5 mg/kg/injection, vehicle: distilled water + Tween-80): 106 % of control | T/C (dose: 75.0 mg/kg/injection, vehicle: distilled water + Tween-80): 104 % of control | T/C (dose: 150.0 mg/kg/injection, vehicle: distilled water + Tween-80): 101 % of control | T/C (dose: 300.0 mg/kg/injection, vehicle: distilled water + Tween-80): 105 % of control | T/C (dose: 600.0 mg/kg/injection, vehicle: distilled water + Tween-80): 110 % of control

CN(C)c1ccc2c(Nc3ccc(NS(C)(=O)=O)cc3)c3ccc(N(C)C)cc3nc2c1
T/C (dose: 21.6 mg/kg/injection, vehicle: Klucel (hydroxypropylcellulose) (HPC)): 116 % of control | T/C (dose: 50.0 mg/kg/injection, vehicle: Klucel (hydroxypropylcellulose) (HPC)): 151 % of control | T/C (dose: 100.0 mg/kg/injection, vehicle: Klucel (hydroxypropylcellulose) (HPC)): 159 % of control | T/C (dose: 166.7 mg/kg/injection, vehicle: Klucel (hydroxypropylcellulose) (HPC)): 172 % of control

O=C1c2ccccc2C(=O)c2c(NCCOCCO)ccc(NCCOCCO)c21
T/C [5]: 100 % of control | T/C [1]: 103 % of control | T/C [2]: 105 % of control | T/C [3]: 102 % of control | T/C [4]: 99 % of control

COc1ccc(C(C)c2cc3c(cc2OC)OCO3)cc1 (stereo unspecified)
T/C [1]: 115 % of control | T/C [3]: 110 % of control

CCN(CC)CCn1c2c(c3ccc(OC)cc31)CCN1CC3CC(OC(=O)c4cc(OC)c(OC)c(OC)c4)C(OC)C(C(=O)OC)C3CC21 (stereo unspecified)
T/C (dose: 25.0 mg/kg/injection, vehicle: saline): 105 % of control | T/C [6]: 97 % of control | T/C [7]: 97 % of control | T/C [8]: 86 % of control

CN1C(=O)C(=O)N(Cc2ccco2)C1=O
T/C (dose: 31.25 mg/kg/injection, vehicle: Klucel (hydroxypropylcellulose) (HPC)): 106 % of control | T/C (dose: 62.5 mg/kg/injection, vehicle: Klucel (hydroxypropylcellulose) (HPC)): 106 % of control | T/C (dose: 125.0 mg/kg/injection, vehicle: Klucel (hydroxypropylcellulose) (HPC)): 99 % of control | T/C (dose: 250.0 mg/kg/injection, vehicle: Klucel (hydroxypropylcellulose) (HPC)): 97 % of control | T/C (dose: 500.0 mg/kg/injection, vehicle: Klucel (hydroxypropylcellulose) (HPC)): 100 % of control

OC1(c2ccccc2)c2ccccc2NC2=NCCN21 (stereo unspecified)
T/C [5]: 95 % of control | T/C [1]: 96 % of control

O=S(O)Cc1ccccc1CSSSCc1ccccc1CS(=O)O
T/C [6]: 105 % of control | T/C (dose: 50.0 mg/kg/injection, vehicle: suspension in saline): 111 % of control | T/C [7]: 103 % of control | T/C (dose: 100.0 mg/kg/injection, vehicle: suspension in saline): 95 % of control | T/C [8]: 94 % of control | T/C (dose: 400.0 mg/kg/injection, vehicle: saline): 99 % of control | T/C (dose: 400.0 mg/kg/injection, vehicle: suspension in saline): 91 % of control | T/C (dose: 800.0 mg/kg/injection, vehicle: saline): 95 % of control | T/C (dose: 800.0 mg/kg/injection, vehicle: suspension in saline): 91 % of control
